# Data from US10221177B2 (HYDRA BIOSCIENCES, INC., priority 2014, dated 2019).
# Target: human TRPA1 (Homo sapiens (Human), UniProt O75762)
# Assay: In vitro inhibition of human TRPA1, whole cell patch configuration
# Format: cell-based
# Details: current activation 10 μM AITC, tested concentrations 320 pM to 3.2 μM, read-out: hTRPA1 IC50
# Experimental: All currents were recorded in whole-cell configuration using EPC-9 and EPC-10 amplifiers and Patchmaster software (HEKA) or similar. […] The standard bath solution contained 150 mM NaCl, 10 mM HEPES, 10 mM glucose, 4.5 mM KCl, 1 mM EGTA, 3 mM MgCl2, with pH adjusted to 7.4 with NaOH. In some instances, 2 mM CaCl2 was added in place of EGTA and the concentration of MgCl2 was reduced to 1 mM.
# Data were collected either by continuous recordings at −60 mV or by applying voltage ramps from a holding potential of −40 mV every 4 s. Continuous recordings were collected at 400 Hz and digitally filtered off-line at 10 Hz for presentation. Voltage ramps were applied from −100 mV or −80 mV to +100 mV or +80 mV over the course of 400 ms, and data were collected at 10 kHz and filtered at 2.9 kHz. Inward and outward currents were analyzed from the ramps at −80 and 80 mV, respectively. Liquid junction potential correction was not used.
# Solutions were switched using a gravity-fed continuous focal perfusion system. To achieve rapid temperature changes, two temperature control, and perfusion systems were employed simultaneously. […] Temperatures were confirmed using a thermistor (Warner Instruments, TA-29), with temperatures at the recorded cell estimated to be within +/−2° C. of those reported.
# The antagonist effects of compounds of Formula (I) against human TRPA1 (“hTRPA1”) in a whole cell patch configuration were evaluated using the in vitro assay described above.
# Sequence of human TRPA1 (O75762 whole entry): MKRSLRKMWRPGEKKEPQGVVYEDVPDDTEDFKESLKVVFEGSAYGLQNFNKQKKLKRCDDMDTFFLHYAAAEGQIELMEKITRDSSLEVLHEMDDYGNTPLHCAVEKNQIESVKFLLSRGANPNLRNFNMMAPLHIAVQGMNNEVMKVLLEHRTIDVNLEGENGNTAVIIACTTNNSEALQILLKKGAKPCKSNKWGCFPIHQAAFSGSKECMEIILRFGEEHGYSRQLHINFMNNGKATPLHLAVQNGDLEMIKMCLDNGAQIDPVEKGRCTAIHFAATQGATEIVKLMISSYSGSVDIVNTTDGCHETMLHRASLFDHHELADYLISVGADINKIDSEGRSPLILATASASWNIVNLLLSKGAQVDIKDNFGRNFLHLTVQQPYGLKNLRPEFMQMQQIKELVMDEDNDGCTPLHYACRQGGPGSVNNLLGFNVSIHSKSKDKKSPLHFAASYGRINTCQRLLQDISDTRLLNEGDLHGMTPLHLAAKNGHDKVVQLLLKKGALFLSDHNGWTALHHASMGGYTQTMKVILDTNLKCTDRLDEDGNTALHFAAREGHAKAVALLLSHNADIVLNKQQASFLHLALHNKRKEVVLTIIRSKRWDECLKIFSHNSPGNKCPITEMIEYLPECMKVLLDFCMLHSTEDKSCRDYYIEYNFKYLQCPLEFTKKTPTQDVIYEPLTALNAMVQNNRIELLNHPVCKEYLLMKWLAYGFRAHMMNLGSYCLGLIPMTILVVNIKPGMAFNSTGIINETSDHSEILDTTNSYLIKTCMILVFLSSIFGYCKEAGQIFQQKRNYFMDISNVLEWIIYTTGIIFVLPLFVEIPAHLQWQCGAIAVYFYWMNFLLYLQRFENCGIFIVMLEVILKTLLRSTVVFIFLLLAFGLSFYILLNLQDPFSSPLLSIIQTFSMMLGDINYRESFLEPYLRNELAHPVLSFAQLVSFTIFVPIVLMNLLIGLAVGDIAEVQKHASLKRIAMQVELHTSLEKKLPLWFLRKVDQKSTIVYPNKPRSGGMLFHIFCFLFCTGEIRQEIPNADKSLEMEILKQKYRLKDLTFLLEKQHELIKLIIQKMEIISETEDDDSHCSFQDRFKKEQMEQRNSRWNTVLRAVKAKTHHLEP
row,SMILES,IC50 [nM]
1,"CC(=O)Cn1c(=O)c2c(ncn2[C@@H](C)C(=O)Nc2cncc(-c3cnc(N4CC5C(C4)C5(F)F)cn3)n2)n(C)c1=O (stereo partly drawn) [Compound 164, (2S)—N-(5′-(6,6-difluoro-3-azabicyclo[3.1.0]hexan-3-yl)-[2,2′-bipyrazin]-6-yl)-2-(3-methyl-2,6-dioxo-1-(2-oxopropyl)-2,3-dihydro-1H-purin-7(6H)-yl)propanamide]",21
2,"Cc1nc2c(c(=O)n(Cc3ccccn3)c(=O)n2C)n1CC(=O)Nc1cccc(-c2ccc(F)c(F)c2)n1 [Compound 175, N-(6-(3,4-difluorophenyl)pyridin-2-yl)-2-(3,8-dimethyl-2,6-dioxo-1-(pyridin-2-ylmethyl)-2,3-dihydro-1H-purin-7(6H)-yl)acetamide]",54
3,"COCC(=O)Cn1c(=O)c2c(ncn2CC(=O)Nc2csc(-c3cnc(C)c(C(F)(F)F)c3)n2)n(C)c1=O [Compound 254, 2-(1-(3-methoxy-2-oxopropyl)-3-methyl-2,6-dioxo-2,3-dihydro-1H-purin-7(6H)-yl)-N-(2-(6-methyl-5-(trifluoromethyl)pyridin-3-yl)thiazol-4-yl)acetamide]",14
4,"CC(=O)Cn1c(=O)c2c(nc(C)n2CC(=O)Nc2cccc(-c3ccc(Cl)cc3)n2)n(C)c1=O [Compound 192, N-(6-(4-chlorophenyl)pyridin-2-yl)-2-(3,8-dimethyl-2,6-dioxo-1-(2-oxopropyl)-1,2,3,6-tetrahydropurin-7-yl)acetamide]",33
5,"CC(=O)CCn1c(=O)c2c(ncn2CC(=O)Nc2cccc(-c3cnc(C)c(C(F)(F)F)c3)n2)n(C)c1=O [Compound 242, 2-(3-methyl-2,6-dioxo-1-(3-oxobutyl)-2,3-dihydro-1H-purin-7(6H)-yl)-N-(6′-methyl-5′-(trifluoromethyl)-[2,3′-bipyridin]-6-yl)acetamide]",290
6,"Cc1cc(Cn2c(=O)c3c(ncn3[C@@H](C)C(=O)Nc3cccc(-c4nc(=O)o[nH]4)n3)n(C)c2=O)no1 [Compound 93, (S)-2-(3-methyl-1-((5-methylisoxazol-3-yl)methyl)-2,6-dioxo-2,3-dihydro-1H-purin-7(6H)-yl)-N-(6-(5-oxo-2,5-dihydro-1,2,4-oxadiazol-3-yl)pyridin-2-yl)propanamide]",> 3200
7,"COCC(=O)Cn1c(=O)c2c(ncn2[C@@H](C)C(=O)Nc2cccc(-c3cnc(C(F)(F)F)nc3)n2)n(C)c1=O [Compound 59, (S)-2-(1-(3-methoxy-2-oxopropyl)-3-methyl-2,6-dioxo-2,3-dihydro-1H-purin-7(6H)-yl)-N-(6-(2-(trifluoromethyl)pyrimidin-5-yl)pyridin-2-yl)propanamide]",45
8,"CC(=O)Cn1c(=O)c2c(ncn2[C@@H](C)C(=O)Nc2ncsc2-c2cnc(C(F)(F)F)nc2)n(C)c1=O [Compound 154, (S)-2-(3-methyl-2,6-dioxo-1-(2-oxopropyl)-2,3-dihydro-1H-purin-7(6H)-yl)-N-(5-(2-(trifluoromethyl)pyrimidin-5-yl)thiazol-4-yl)propanamide]",> 3200
9,"C[C@@H](C(=O)Nc1cncc(-c2ccc(C(F)(F)F)nc2)n1)n1cnc2c1c(=O)n(Cc1ccccn1)c(=O)n2C [Compound 9, (2S)-2-(3-methyl-2,6-dioxo-1-(pyridin-2-ylmethyl)-1,2,3,6-tetrahydropurin-7-yl)-N-(6-(6-(trifluoromethyl)pyridin-3-yl)pyrazin-2-yl)propanamide]",59
10,Cc1ncc(-c2cccc(NC(=O)Cn3cnc4c3c(=O)n(CCO)c(=O)n4C)n2)cc1C(F)(F)F [Compound 237],236
11,"CC(=O)Cn1c(=O)c2c(ncn2[C@@H](C)C(=O)Nc2cccc(-c3cnc(C(F)(F)F)nc3)n2)n(C)c1=O [Compound 4, (S)-2-(3-methyl-2,6-dioxo-1-(2-oxopropyl)-2,3-dihydro-1H-purin-7(6H)-yl)-N-(6-(2-(trifluoromethyl)pyrimidin-5-yl)pyridin-2-yl)propanamide]",25
12,"C[C@@H](C(=O)Nc1cncc(-c2cnc(C(F)(F)F)nc2)n1)n1cnc2c1c(=O)n(Cc1ccon1)c(=O)n2C [Compound 120, (S)-2-(1-(isoxazol-3-ylmethyl)-3-methyl-2,6-dioxo-2,3-dihydro-1H-purin-7(6H)-yl)-N-(6-(2-(trifluoromethyl)pyrimidin-5-yl)pyrazin-2-yl)propanamide]",26

# The next compounds have a lower IC50 than those just listed; values first:
row,IC50 [nM],SMILES
1,5,"COCC(=O)Cn1c(=O)c2c(ncn2[C@@H](C)C(=O)Nc2cncc(-c3ccc(N4CC5CC5C4)nc3)n2)n(C)c1=O (stereo partly drawn) [Compound 271, (2S)—N-(6-(6-(3-azabicyclo[3.1.0]hexan-3-yl)pyridin-3-yl)pyrazin-2-yl)-2-(1-(3-methoxy-2-oxopropyl)-3-methyl-2,6-dioxo-2,3-dihydro-1H-purin-7(6H)-yl)propanamide]"
2,11,"Cc1cc(Cn2c(=O)c3c(ncn3[C@@H](C)C(=O)Nc3cncc(-c4cnc(C)c(Cl)c4)n3)n(C)c2=O)no1 [Compound 139, (S)—N-(6-(5-chloro-6-methylpyridin-3-yl)pyrazin-2-yl)-2-(3-methyl-1-((5-methylisoxazol-3-yl)methyl)-2,6-dioxo-2,3-dihydro-1H-purin-7(6H)-yl)propanamide]"
3,1,Cc1noc(Cn2c(=O)c3c(ncn3CC(=O)Nc3cccc(-c4cnc(C)c(C(F)(F)F)c4)n3)n(C)c2=O)n1 [Compound 241]
4,3,"Cc1cc(Cn2c(=O)c3c(ncn3[C@@H](C)C(=O)Nc3csc(-c4cnc(C(F)(F)F)nc4)n3)n(C)c2=O)no1 [Compound 32, (S)-2-(3-methyl-1-((5-methylisoxazol-3-yl)methyl)-2,6-dioxo-2,3-dihydro-1H-purin-7(6H)-yl)-N-(2-(2-(trifluoromethyl)pyrimidin-5-yl)thiazol-4-yl)propanamide]"
5,3,"CCC(=O)Cn1c(=O)c2c(ncn2[C@@H](C)C(=O)Nc2cccc(-c3ccc(N4CC5CC5C4)nc3)n2)n(C)c1=O (stereo partly drawn) [Compound 37, (2S)—N-(6′-(3-azabicyclo[3.1.0]hexan-3-yl)-2,3′-bipyridin-6-yl)-2-(3-methyl-2,6-dioxo-1-(2-oxobutyl)-2,3-dihydro-1H-purin-7(6H)-yl)propanamide]"
6,10,"CC#CCn1c(=O)c2c(ncn2[C@@H](C)C(=O)Nc2cccc(-c3cnc(N4CC5C(C4)C5(F)F)nc3)n2)n(C)c1=O (stereo partly drawn) [Compound 169, (2S)-2-(1-(but-2-yn-1-yl)-3-methyl-2,6-dioxo-2,3-dihydro-1H-purin-7(6H)-yl)-N-(6-(2-(6,6-difluoro-3-azabicyclo[3.1.0]hexan-3-yl)pyrimidin-5-yl)pyridin-2-yl)propanamide]"
7,9,"Cc1noc(Cn2c(=O)c3c(ncn3[C@@H](C)C(=O)Nc3cncc(-c4cnc(C(F)(F)F)c(C)c4)n3)n(C)c2=O)n1 [Compound 133, (S)-2-(3-methyl-1-((3-methyl-1,2,4-oxadiazol-5-yl)methyl)-2,6-dioxo-2,3-dihydro-1H-purin-7(6H)-yl)-N-(6-(5-methyl-6-(trifluoromethyl)pyridin-3-yl)pyrazin-2-yl)propanamide]"
8,7,"C[C@@H](C(=O)Nc1cncc(-c2cnc(N3CC4C(C3)C4(F)F)nc2)n1)n1cnc2c1c(=O)n(CC#N)c(=O)n2C (stereo partly drawn) [Compound 60, (2S)-2-(1-(cyanomethyl)-3-methyl-2,6-dioxo-2,3-dihydro-1H-purin-7(6H)-yl)-N-(6-(2-(6,6-difluoro-3-azabicyclo[3.1.0]hexan-3-yl)pyrimidin-5-yl)pyrazin-2-yl)propanamide]"
9,1,"C[C@@H](C(=O)Nc1csc(-c2cnc(N3CCC[C@H]3C(F)(F)F)nc2)n1)n1cnc2c1c(=O)n(CC#N)c(=O)n2C [Compound 28, (S)-2-(1-(cyanomethyl)-3-methyl-2,6-dioxo-2,3-dihydro-1H-purin-7(6H)-yl)-N-(2-(2-((S)-2-(trifluoromethyl)pyrrolidin-1-yl)pyrimidin-5-yl)thiazol-4-yl)propanamide]"
10,3,"CC(=O)Cn1c(=O)c2c(ncn2[C@@H](C)C(=O)Nc2csc(-c3cnc(C)c(C(F)(F)F)c3)n2)n(C)c1=O [Compound 98, (S)-2-(3-methyl-2,6-dioxo-1-(2-oxopropyl)-2,3-dihydro-1H-purin-7(6H)-yl)-N-(2-(6-methyl-5-(trifluoromethyl)pyridin-3-yl)thiazol-4-yl)propanamide]"
11,6,"CCC(=O)Cn1c(=O)c2c(ncn2CC(=O)Nc2csc(-c3cnc(C(F)(F)F)c(C)c3)n2)n(C)c1=O [Compound 249, 2-(3-methyl-2,6-dioxo-1-(2-oxobutyl)-2,3-dihydro-1H-purin-7(6H)-yl)-N-(2-(5-methyl-6-(trifluoromethyl)pyridin-3-yl)thiazol-4-yl)acetamide]"
12,9,"Cc1cc(Cn2c(=O)c3c(ncn3CC(=O)Nc3cncc(-c4cnc(C(F)(F)F)c(C)c4)n3)n(C)c2=O)no1 [Compound 229, 2-(3-methyl-1-((5-methylisoxazol-3-yl)methyl)-2,6-dioxo-2,3-dihydro-1H-purin-7(6H)-yl)-N-(6-(5-methyl-6-(trifluoromethyl)pyridin-3-yl)pyrazin-2-yl)acetamide]"
13,10,"CC(=O)Cn1c(=O)c2c(ncn2[C@@H](C)C(=O)Nc2cncc(-c3ccc(N4CC5C(C4)C5(F)F)nc3)n2)n(C)c1=O (stereo partly drawn) [Compound 76, (2S)—N-(6-(6-(6,6-difluoro-3-azabicyclo[3.1.0]hexan-3-yl)pyridin-3-yl)pyrazin-2-yl)-2-(3-methyl-2,6-dioxo-1-(2-oxopropyl)-2,3-dihydro-1H-purin-7(6H)-yl)propanamide]"
